The results in this text go back to US8591908B2, “Immunogen for preparation of therapeutic vaccines or drugs for treatment of hepatitis B and the producing method and use thereof” (Institute of Immunology, PLA, priority 2002, dated 2013).

Ends that are not written are not given here. * marks the point of attachment. Palmitoyl = CCCCCCCCCCCCCCCC(=O)*; Lauroyl = CCCCCCCCCCCC(=O)*

In test [1] the test system is 2215, E6 and T2 target cells. Description: FIG. 4: induced CTL cytotoxicity, 51Cr release test. The following applies: 10 ng test drug; E/T 12.5, 25, 50, 100. The test is classed as cell-based, human. The procedure: (§1) FIG. 4 indicated the effect of inducing cytotoxicity. […] Three days after the last stimulation, antigen-specific effector CTL cells were obtained, and their cytotoxic activities were measured by the standard ^51Cr release test and compared. […] Twenty-four hours after the last stimulation to HLA-A2+ human PBMC, the effects of the test drug to induce the proliferating INF-γ secreting CTL cells in peripheral blood lymphocytes were measured in the ELISPOT method and compared.

Another test has as its system HLA-A2+ human PBMC. Description: FIG. 4: IFN-γ secreting CTL cells, ELISPOT. The test is classed as cell-based. The following applies: 24 h after last stimulation. The procedure: as §1
Test [2] has as its system PBMCs from hepatitis B patient. The test can be described thus: Lymphocyte activation (Th1/Th2) of PBMCs from hepatitis B patient. The test is classed as cell-based, human. The following applies: IL-4, IL-10, IFN-γ in culture supernatants, acute and chronic hepatitis. The text has this: Acute and chronic hepatitis blank control groups, acute hepatitis+/test drug group and chronic hepatitis+/test drug group were included to test the Th1/Th2 activation by Endogen kit or EELISPOT method.

A further test concerns Balb/c mice. Description: ELISPOT test of induced cytotoxicity in immunized mice. The test is classed as in vivo. The following applies: IFN-γ ELISPOT of PBMC. The source says:
Balb/c mice of 2-3 Months old (both male and female) were divided into 8 groups, and were immunized with the present compound at both postpede palmas once a week for three times at different doses: 0.001 nmol, 0.01 nmol, 0.1 nmol, 0.5 nmol, 1 nmol, 10 nmol, 20 nmol, and 40 nmol respectively. Bloods were taken postorbitally from mice under sterile conditions on the 6th, 12th, 18th and 24th day after the end of immunization respectively and were anticoagulatant-treated. PBMCs were isolated by Ficoll-Hypaque method, and were cultured in RPMI1640 culture media (containing 10% calf serum, and 100μ/ml penicillin-streptomycin) (10^6/ml, 96-well culture plate) in vitro for one day. After they returned to the original growth state, they were used as test cells. ELISPOT 96-well cell culture plate was pre-coated with IFN-γ coating antibody overnight, each well was treated in triplicate. The wells were blocked with RPMI1640 containing 5% calf serum at room temperature for 1 hour. After drying in air, test cells were added (5×10^4 cells/100 μl/well, containing RPMI1640 media, 10% calf serum, 100μ/ml myciline, and 1 μg/ml peptide), wherein the PBMC of mice immunized with melan A27-35 peptide were set as negative control. […] Then the plate was washed again and dried in air, the substrate was added for visualization and the number of spots was counted.

Test [3] has as its system PBMCs from acute hepatitis B patient in convalescent phase. The test can be described thus: Proliferation of lymphocytes in PBMC of acute hepatitis B patient, 3H-TdR. The test is classed as cell-based, human. The following applies: 0.1 μg, 1 μg and 10 μg/ml with IL-2. The procedure:
Anticoagulant peripheral blood was collected aseptically from acute hepatitis B patient in convalescent phase, PBMCs were isolated by conventional Ficoll-Hypaque density gradient centrifugation and were cultured in RPMI1640 cultural media (containing 10% calf serum, 100 u/ml penicillin-streptomycin, L-glutamine) in vitro on 24-well cell culture plate at a concentration of 10^6/ml. Blank control group, test group, and Pre-S (2) control group were included. IL-2 (30 IU/ml) and test drug (0.1 μg/ml, 1 μg/ml, 10 μg/ml) were separately added into the wells. After the cells were cultured for 6 days, IL-2 and the test drug were added at the same doses to stimulate the cells again. Then 3H-TdR (1 uCi/ml) was added and further cultured for 18 hours. The cells were collected and tested by liquid scintillation.

On to “CH3(CH2)7CH═CH(CH2)—CO, CH3CH2CH═CHCH2CH═CH(CH2)7CO7KSSQYIKANSKFIGITEGGGDPRVRGLYFPA (not fully specified (N-terminus); printed as CH3(CH2)7CH═CH(CH2)—CO, CH3CH2CH═CHCH2CH═CH(CH2)7CO7KSSQYIKANSKFIGITEGGGDPRVRGLYFPA) [SEQ ID NO:3]”, for which the “CTL effect, lysis of target cells” value in test [1] is “induce the CTL effect in human PBMC, and specifically lyzed and destroyed target cells”. In addition, the “proliferation of IFN-γ secreting cells” value in the test with HLA-A2+ human PBMC is “induce the proliferation of IFN-γ secreting cells in human PBMC in a notable dose-effect dependence relation”. As for “CH3(CH2)10COKSSPADREGGGSLNFLGGTTVSSSDPRVRGLYFPA (Lauroyl-KSSPADREGGGSLNFLGGTTVSSSDPRVRGLYFPA) [SEQ ID NO:50]”, the “conversion of T-lymphocytes into Th1/Th2 type” value in test [2] is “induce the conversion of T-lymphocytes into both Th1 and Th2 types, with the conversion into Th1 type the most obvious”. For the substance “CH3(CH2)14COKSSPADREAAAFLPSDFFPSVGGGDPRVRGLYFPA (Palmitoyl-KSSPADREAAAFLPSDFFPSVGGGDPRVRGLYFPA) [SEQ ID NO:56]”, the minimum effective dose in the test on Balb/c mice is listed as 0.01 nmol. For the substance “CH3(CH2)14COKSSQYIKANSKFIGITEAAALLCLIFLLVGGGDPRVRGLYFPA (Palmitoyl-KSSQYIKANSKFIGITEAAALLCLIFLLVGGGDPRVRGLYFPA) [SEQ ID NO:51]”, the “proliferation of PBMCs” value in test [3] is “stimulated the proliferation of PBMCs from acute hepatitis B patient in convalescent phase in a manner of dose dependence”.
